Results as given in patent publication US7892789B2, “Method of increasing cell permeability to trehalose by recombinantly producing a trehalose transporter” (priority 2007, dated 2011).

Legend:
[1] = target: T1, AgTRET1 (Anopheles gambiae, UniProt Q7PIR5); assay: Trehalose uptake in Xenopus oocytes expressing AgTRET1; type: cell-based; conditions: 105 mM of trehalose, 3 h
T1 construct: ORF of either Tret1, DmTret1, AmTret1, AgTret1 or BmTret1 cDNA was amplified with PCR; expressed in transfected cells; host or cells: Xenopus laevis oocytes injected with cRNA
T1 sequence (Q7PIR5 290-793): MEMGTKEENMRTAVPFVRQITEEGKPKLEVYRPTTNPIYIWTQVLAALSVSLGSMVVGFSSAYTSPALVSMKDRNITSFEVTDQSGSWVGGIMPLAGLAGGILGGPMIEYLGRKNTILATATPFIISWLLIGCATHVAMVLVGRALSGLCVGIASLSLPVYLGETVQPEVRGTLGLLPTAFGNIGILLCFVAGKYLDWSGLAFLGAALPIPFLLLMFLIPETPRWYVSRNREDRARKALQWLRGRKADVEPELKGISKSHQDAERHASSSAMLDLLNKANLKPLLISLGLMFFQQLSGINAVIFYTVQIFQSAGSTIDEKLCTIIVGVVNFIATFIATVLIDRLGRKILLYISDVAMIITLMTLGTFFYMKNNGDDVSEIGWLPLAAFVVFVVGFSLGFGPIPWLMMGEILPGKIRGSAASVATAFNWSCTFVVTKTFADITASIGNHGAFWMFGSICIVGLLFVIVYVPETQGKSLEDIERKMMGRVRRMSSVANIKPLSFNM
Text: (§1) The capped RNA (cRNA) expression vector pTRET1-XbG-ev1 series was constructed as follows: ORF of either Tret1, DmTret1, AmTret1, AgTret1 or BmTret1 cDNA was amplified with PCR using specific primers containing Bgl II site at the 5′-end on each primer, respectively. The PCR products were digested with the restriction enzymes, and cloned into the site of Bgl II in pXbG-ev1 (Preston, G. M., et al. (1992) Science 256, 385-387). ORF of hGLUT1 cDNA was obtained by digestion of pSPMM1 with BamH I, and then subcloned into the site of Bgl II in pXbG-2. Template DNAs for cRNA synthesis were amplified from the corresponding cRNA expression vectors with a high fidelity DNA polymerase, KOD—Plus—, (TOYOBO). The cRNAs were synthesized with mMESSAGE mMACHINE T7 Kit (Ambion), and then purified with RNeasy MiniElute Cleanup kit (Qiagen).
(§2) All uptake assays for zero-trans trehalose and/or other sugars were performed using Xenopus oocytes expressing TRET1 at 15° C. in MBS containing appropriate concentrations of sugars. Sugar concentrations were determined using HPLC (Watanabe, M., et al. (2002) J Exp Biol 205, 2799-2802). All assays were carried out in triplicate. […] (data not shown).
(§3) Likewise, whether these Tret1-orthologs have trehalose transport activity was examined using the Xenopus oocyte expression system incubated in 105 mM of trehalose for 3 h.

[2] = Degradation of trehalose in extracts of mammalian cells; type: in vitro ADME; conditions: extracts of CHO-K1, HuH-7, NIH3T3 cells, 3 h at 37° C., data not shown
[3] = target: T2, DmTRET1 (Drosophila melanogaster, UniProt A1Z8N1); assay: Trehalose uptake in Xenopus oocytes expressing DmTRET1; type: cell-based; conditions: 105 mM of trehalose, 3 h
T2 construct: ORF of either Tret1, DmTret1, AmTret1, AgTret1 or BmTret1 cDNA was amplified with PCR; expressed in transfected cells; host or cells: Xenopus laevis oocytes injected with cRNA
T2 sequence (A1Z8N1 352-857): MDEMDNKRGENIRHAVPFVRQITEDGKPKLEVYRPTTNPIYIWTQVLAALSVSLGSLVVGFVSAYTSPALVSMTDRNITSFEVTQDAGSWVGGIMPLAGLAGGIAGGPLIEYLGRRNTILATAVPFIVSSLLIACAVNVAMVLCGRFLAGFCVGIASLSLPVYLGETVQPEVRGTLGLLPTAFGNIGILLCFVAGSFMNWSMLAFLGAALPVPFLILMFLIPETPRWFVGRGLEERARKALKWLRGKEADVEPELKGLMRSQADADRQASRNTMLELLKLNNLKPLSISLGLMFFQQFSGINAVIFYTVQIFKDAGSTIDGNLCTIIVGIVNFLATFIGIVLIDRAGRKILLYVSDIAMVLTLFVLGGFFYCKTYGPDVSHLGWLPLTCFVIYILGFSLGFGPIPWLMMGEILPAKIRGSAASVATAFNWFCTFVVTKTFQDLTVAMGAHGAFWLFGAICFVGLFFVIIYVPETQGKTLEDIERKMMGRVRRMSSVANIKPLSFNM
Text: as §1, §2, §3

[4] = target: T3, BmTRET1 (Bombyx mori, UniProt A9ZSY3); assay: Trehalose uptake in Xenopus oocytes expressing BmTRET1; type: cell-based; conditions: 105 mM of trehalose, 3 h
T3 construct: ORF of either Tret1, DmTret1, AmTret1, AgTret1 or BmTret1 cDNA was amplified with PCR; expressed in transfected cells; host or cells: Xenopus laevis oocytes injected with cRNA
T3 sequence (A9ZSY3 1-505): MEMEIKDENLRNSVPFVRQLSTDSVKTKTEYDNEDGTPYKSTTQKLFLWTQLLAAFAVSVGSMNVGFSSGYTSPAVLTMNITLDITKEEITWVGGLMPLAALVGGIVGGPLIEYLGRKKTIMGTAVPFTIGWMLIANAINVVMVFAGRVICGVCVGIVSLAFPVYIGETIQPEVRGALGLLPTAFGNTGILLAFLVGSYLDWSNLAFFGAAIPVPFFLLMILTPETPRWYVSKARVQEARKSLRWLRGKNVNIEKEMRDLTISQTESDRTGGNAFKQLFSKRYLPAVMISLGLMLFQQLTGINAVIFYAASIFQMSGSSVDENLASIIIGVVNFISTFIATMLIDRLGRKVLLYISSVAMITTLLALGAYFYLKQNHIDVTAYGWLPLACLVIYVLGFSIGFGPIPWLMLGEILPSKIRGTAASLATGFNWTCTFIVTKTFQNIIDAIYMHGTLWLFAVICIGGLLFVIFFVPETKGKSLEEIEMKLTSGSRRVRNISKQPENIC
Text: as §1, §2, §3

[5] = target: T4, AmTRET1 (Apis mellifera ligustica, UniProt A9ZSY2); assay: Trehalose uptake in Xenopus oocytes expressing AmTRET1; type: cell-based; conditions: 105 mM of trehalose, 3 h
T4 construct: ORF of either Tret1, DmTret1, AmTret1, AgTret1 or BmTret1 cDNA was amplified with PCR; expressed in transfected cells; host or cells: Xenopus laevis oocytes injected with cRNA
T4 sequence (A9ZSY2 1-502): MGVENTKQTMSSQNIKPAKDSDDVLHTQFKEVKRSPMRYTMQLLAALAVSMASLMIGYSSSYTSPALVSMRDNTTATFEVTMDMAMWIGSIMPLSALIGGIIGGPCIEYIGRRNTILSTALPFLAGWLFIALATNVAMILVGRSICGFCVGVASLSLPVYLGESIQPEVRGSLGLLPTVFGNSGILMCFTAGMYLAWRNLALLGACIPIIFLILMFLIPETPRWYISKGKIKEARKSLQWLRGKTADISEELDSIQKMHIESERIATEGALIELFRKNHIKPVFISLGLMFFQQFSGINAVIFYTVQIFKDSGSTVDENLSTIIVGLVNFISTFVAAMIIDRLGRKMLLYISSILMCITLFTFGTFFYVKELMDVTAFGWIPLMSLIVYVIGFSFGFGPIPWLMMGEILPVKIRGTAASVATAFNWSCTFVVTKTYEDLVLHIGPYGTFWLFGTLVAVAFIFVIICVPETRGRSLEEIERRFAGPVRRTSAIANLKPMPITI
Text: as §1, §2, §3

Structure (SMILES): OC[C@H]1O[C@H](O[C@H]2O[C@H](CO)[C@@H](O)[C@H](O)[C@H]2O)[C@H](O)[C@@H](O)[C@@H]1O [trehalose]
- trehalose transport activity [1]: showed trehalose transport activity
- degradation of trehalose [2]: No degradation
- trehalose transport activity [3]: showed trehalose transport activity
- trehalose transport activity [4]: showed trehalose transport activity
- trehalose transport activity [5]: showed trehalose transport activity
